Consider 4 molecules from patent US6197751A, “Thymosin α1 promotes tissue repair, angiogenesis and cell migration” (The United States of America as represented by the …, priority 1998, dated 2001).

Common to all, as to assay type: cell-based
For test [1], the system named is HT1080 cells (human fibrosarcoma cell line). Briefly: Boyden chamber migration, HT1080 cells. Here is the method: (§1) Human umbilical vein endothelial cells (HUVECs) were isolated from freshly delivered cords according to Jaffe et al. (J. Clin. Invest. 52: 2745, 1973) and grown on Nunclon dishes (Nunc, Denmark) in RPMI 1640 (Life Technologies, Gaithersburg, Md.) supplemented with 20% bovine calf serum (Hyclone Laboratories, Logan Utah), 100 U/ml penicillin/streptomycin (Life Technologies, Gaithersburg, Md.), 50 μg/ml gentamycin (Life Technologies, Gaithersburg, Md.), 2.7 μg/ml amphotericin B (fungizone)(Life Technologies, Gaithersburg, Md.), 5 U/ml sodium heparin (Fisher Scientific, Pittsburgh, Pa.) and 200 μg/ml endothelial cell growth supplement (ECGS) (Collaborative Research, Bedford, Mass.). Cells between passage 3 and 5 were used for all experiments. Human coronary artery endothelial cells (HCAECs) were grown on Nunclon dishes in the HUVEC media. Foreskin fibroblasts (Ffs) were grown in DMEM supplemented with 10% fetal bovine serum (Hyclone) on Falcon (Becton Dickinson, N.J.) dishes. HT1080 cells (human fibrosarcoma cell line) were grown in Falcon flasks in DMEM supplemented with 10% fetal bovine serum. Neutrophils were freshly isolated from buffy coats as previously reported (Kibbey et al., J. Cell Phys. 160:185, 1994). Human aortic smooth muscle cells (AOSMCs) were grown in smooth muscle cell media (Clonetics, San Diego, Calif.) on Nunclon dishes.
(§2) Several cell types were tested to determine if the migratory stimulation observed with Tα1 was specific. […] HUVEC migration assays were carried out in Boyden chambers using 12 ,m pore PVP free filters coated with either a 0.1 mg/ml or 0.05 mg/ml solution of collagen IV as previously reported (Malinda et al., FASEB J. 11:474, 1997). Each condition was assayed in triplicate wells at least three times unless indicated. HCAECs, AOSMCs, FFs, HT1080 cells and neutrophils were cultured or isolated and assayed for migration as previously reported (Malinda et al., FASEB J. 11:474, 1997).

Another test has as its system foreskin fibroblasts. In words: Boyden chamber migration, foreskin fibroblasts. As to conditions: FF, positive control 10 ng/ml. The method, then:
as §1, §2

Another test relates to Neutrophils. In words: Boyden chamber migration, neutrophils. As to conditions: Neutrophils, positive control 10^-7 M. Here is the method:
as §1, §2

Another test has as its system Monocytes. In words: Boyden chamber migration, monocytes. As to conditions: Monocytes, positive control 10^-7 M. Here is the method:
[The procedure below names another cell line; the source lists this cell line under the same test.] as §2

Test [2] deals with human aortic smooth muscle cells. In words: Boyden chamber migration, aortic smooth muscle cells. As to conditions: AOSMC, positive control 10 ng/ml. The method, then:
as §1, §2

laminin [LN, reference compound]: the “average number of cells that migrated ± SEM” value was determined as 661.2 ± 37 in test [1] (HT1080, positive control 1 ug/ml) and 1136 ± 70.3 in test [1] (HT1080, positive control 5 ug/ml).
On to “basic fibroblast growth factor [bFGF, reference compound]”, for which the “average number of cells that migrated ± SEM” value in the test with foreskin fibroblasts is listed as 12.3 ± 0.3.
For FMLP [reference compound], the entries for the “average number of cells that migrated ± SEM” value in the test on Neutrophils and in the test with Monocytes were 1404.7 ± 58.2 and 74 ± 2.1, respectively.

B1: PDGF-BB: platelet derived growth factor B form, positive control (protein, UniProt P01127 82-190, looked up)
Platelet-derived growth …: SLGSLTIAEPAMIAECKTRTEVFEISRRLIDRTNANFLVWPPCVEVQRCSGCCNNRNVQCRPTQVQLRPVQVRKIEIVRKKPIFKKATVTLEDHLACKCETVAAARPVT
Regarding B1, the “average number of cells that migrated ± SEM” value in test [2] was found to be 36 ± 4.5.
